Test results taken from US20050261177A1, “Compound” (priority 2001, published 2005).
Like-named read-outs stand apart in the source and are kept apart here. Numbered stars: 1 amine (or outer) side, 2 acyl side, 3 side chain; on linkers, the order of the positions; unused ones are H or OH. Bridge positions count the residues as written; N and C are the ends. Square brackets hold non-standard residues; d marks the D form. Peptide text beside a SMILES is read from it. * marks the point of attachment. hTyr(3R-OH,3'-OSO3H) = N[C@H](C(=O)O)[C@H](O)Cc1ccc(O)c(OS(=O)(=O)O)c1; X3 = O=C(c1ccc(-c2cn3nc(-c4ccc(OC5CCN(c6ccccc6)CC5)cc4)sc3n2)cc1)*; X2 = COCCCCCCN1CCN(c2ccc(-c3nn4cc(-c5ccc(C(=O)*)cc5)nc4s3)cc2)CC1; X4 = C[C@H]1CC[C@H](N2CCN(c3ccc(-c4ccc(C(=O)*)cc4)cc3)CC2)CC1; Orn(3R-OH,Nδ-CH(CH2OH)2) = N[C@H](C(=O)O)[C@H](O)CCNC(CO)CO; X1 = CCCCCOC1CCN(c2ccc(-c3nnc(-c4ccc(C(=O)*)cc4)s3)cc2)CC1; Orn(4R-OH) = O=C([C@H](C[C@@H](O)CN[*:3])N[*:1])[*:2]; Pro(3S-OH,4S-Me) = C[C@H]1CN[C@H](C(=O)O)[C@H]1O; Hyp = O=C(O)[C@@H]1C[C@@H](O)CN1

System: Candida albicans FP-633
Assay type: cell-based
Procedure: In vitro antimicrobial activity of the object compound of Examples 41, 46, 53 and 56 disclosed later was determined by MICs in mouse serum as described below.
The MICS in mouse serum were determined by the microdilution method using ICR mouse serum buffered with 20 mM HEPES buffer (pH 7.3) as a test medium. Inoculum suspension of 10^6 cells/ml were prepared by a hemocytometric procedure and diluted to obtain an inoculum size of approximately 1.0×10^3 cells/ml. Microplates were incubated at 37° C. for 24 hours in 5% CO2. The MICS were defined as the lowest concentrations at which no visible growth was observed.

[1] = Candida albicans FP-633, ICR mouse serum buffered with 20 mM HEPES (pH 7.3), 37° C., 24 hours, 5% CO2, lowest concentration with no visible growth

Compound	MIC (FP-633, 24 h, pH 7.3) [µg/mL]	MIC [1] [µg/mL]
CCCCCOC1CCN(c2ccc(-c3nnc(-c4ccc(C(=O)N[C@H]5C[C@@H](O)CNC(=O)[C@@H]6[C@@H](O)[C@@H](C)CN6C(=O)[C@H]([C@H](O)CCNC(CO)CO)NC(=O)[C@H]([C@H](O)Cc6ccc(O)c(OS(=O)(=O)O)c6)NC(=O)[C@@H]6C[C@@H](O)CN6C(=O)[C@H]([C@@H](C)O)NC5=O)cc4)s3)cc2)CC1 [Example 56] (X1-[Orn(4R-OH)]T[Hyp][hTyr(3R-OH,3'-OSO3H)][Orn(3R-OH,Nδ-CH(CH2OH)2)][Pro(3S-OH,4S-Me)]; lactam 1-C)	<0.3	
C[C@@H](O)[C@@H]1NC(=O)[C@@H](NC(=O)c2ccc(-c3ccc(N4CCN([C@H]5CC[C@H](C)CC5)CC4)cc3)cc2)C[C@@H](O)CNC(=O)[C@@H]2[C@@H](O)[C@@H](C)CN2C(=O)[C@H]([C@H](O)CCNC(CO)CO)NC(=O)[C@H]([C@H](O)Cc2ccc(O)c(OS(=O)(=O)O)c2)NC(=O)[C@@H]2C[C@@H](O)CN2C1=O [Example 53] (X4-[Orn(4R-OH)]T[Hyp][hTyr(3R-OH,3'-OSO3H)][Orn(3R-OH,Nδ-CH(CH2OH)2)][Pro(3S-OH,4S-Me)]; lactam 1-C)		<0.3
C[C@@H](O)[C@@H]1NC(=O)[C@@H](NC(=O)c2ccc(-c3cn4nc(-c5ccc(OC6CCN(c7ccccc7)CC6)cc5)sc4n3)cc2)C[C@@H](O)CNC(=O)[C@@H]2[C@@H](O)[C@@H](C)CN2C(=O)[C@H]([C@H](O)CCNC(CO)CO)NC(=O)[C@H]([C@H](O)Cc2ccc(O)c(OS(=O)(=O)O)c2)NC(=O)[C@@H]2C[C@@H](O)CN2C1=O [Example 41] (X3-[Orn(4R-OH)]T[Hyp][hTyr(3R-OH,3'-OSO3H)][Orn(3R-OH,Nδ-CH(CH2OH)2)][Pro(3S-OH,4S-Me)]; lactam 1-C)		<0.3
COCCCCCCN1CCN(c2ccc(-c3nn4cc(-c5ccc(C(=O)N[C@H]6C[C@@H](O)CNC(=O)[C@@H]7[C@@H](O)[C@@H](C)CN7C(=O)[C@H]([C@H](O)CCNC(CO)CO)NC(=O)[C@H]([C@H](O)Cc7ccc(O)c(OS(=O)(=O)O)c7)NC(=O)[C@@H]7C[C@@H](O)CN7C(=O)[C@H]([C@@H](C)O)NC6=O)cc5)nc4s3)cc2)CC1 [Example 46] (X2-[Orn(4R-OH)]T[Hyp][hTyr(3R-OH,3'-OSO3H)][Orn(3R-OH,Nδ-CH(CH2OH)2)][Pro(3S-OH,4S-Me)]; lactam 1-C)	<0.3	
